Assay results as given in US4172148A, “Ruminant feeds containing trichloroethyl esters of essential amino acids” (E. R. Squibb & Sons, Inc., priority 1978, dated 1979).

Columns and labels:
[1] = tested on: volatile fatty acid concentrations in the in vitro rumen fermentation; experiment: in vitro rumen fermentation, volatile fatty acids, alfalfa hay:concentrate 3:1 (Examples 3 and 12); set-up: species or system sheep; settings: for Acetic acid / Acetic:propionic / Butyric acid / Propionic acid / Total acids: 6 h, 39° C.
Method: A one gram sample of substrate ground through a 1 mm screen is weighed into 100 ml. lipless beakers equipped with gas-release valves. The substrate consists of alfalfa hay containing approximately 16% protein and a concentrate containing ground corn 60.7%, alfalfa meal 17.5%, molasses 10.0%, soybean meal 5.3%, wheat bran 5.0%, trace mineralized salt 1.0%, limestone 0.5% and Vitamin D 300,000 I.U./ton, mixed in the proportion 3:1. The experimental composition is added to the substrate. 25 ml. of filtered rumen fluid obtained from fasted sheep maintained on feed the same as the above mentioned substrate and 25 ml. of McDougal's buffer solution serve as the inoculum. The buffer solution is as follows:
The fermentation mixture is flushed with carbon dioxide and the vessel is capped with a gas release valve. The fermentation vessel (beaker) is placed in a water bath and incubated at 39° C.±1° for six hours. The sample is mixed every hour by shaking the beaker.
At the end of the 6-hour fermentation period the sample is strained through 4 layers of cheesecloth into a sample bottle containing 1 ml. saturated solution of mercuric chloride. The sample is frozen immediately until analyzed for the volatile fatty acids (VFA) (mg/100 ml.). Prior to analysis, each sample is acidified with 30% phosphoric acid and then analyzed by gas chromatography using a column containing 5% nonylphenoxypolyoxyethylene ethanol plus 0.5% phosphoric acid on 100-120 mesh Gas Chrom S. The acids determined are acetic, propionic, butyric, isobutyric, valeric and isovaleric acids. Total VFA is considered as the addition of these acids. The ratio of acetic: propionic (A:P) is obtained by dividing the concentration of acetic acid by that of propionic acid.
The effect of various compounds alone on the volatile fatty acid concentrations was determined by the procedure of Example 3. […] A direct comparison between phenylalanine and phenylalanine trichloroethyl ester is provided.

[2] = tested on: growing lambs; experiment: body weight gain and feed efficiency of growing lambs (Examples 9-11); format: in vivo, lambs (sheep)
Method: A test was conducted to determine if feeding L-phenylalanine, 2,2,2-trichloroethyl ester to growing lambs was effective in improving growth and feed efficiency. Wether and ewe lambs were divided into groups of 30 lambs each. They were acclimated to their pens for 2 weeks prior to treatment.
The feed supplied to the animals had the following composition
The test compound in an amount of 0.0055% (50 g/ton) was admixed with the above feed composition.
Body weights and feed consumption were recorded at 0, 2, 4 and 6 weeks. Feed efficiencies were calculated.
The test procedure of Example 9 was followed to test the growth effect and feed efficiency of glycine 2,2,2-trichloroethyl ester on growing lambs. The feed composition of Example 9 was used but contained glycine 2,2,2-trichloroethyl ester in an amount of 0.0044% (40 g/ton). There were 44 lambs in the control group receiving the feed composition without additive and 42 lambs receiving the feed composition containing the amino acid ester.
The test procedure of Example 9 was followed to test the growth effect and feed efficiency of L-phenylalanine 2,2,2-trichloroethyl ester on growing lambs. The feed composition of Example 9 was used but contained 0.0088% (80 g/ton) of this amino acid ester. There were 59 lambs in the control group fed the feed without additive and 58 lambs in the group fed the feed composition containing the test compound.

[3] = tested on: volatile fatty acid concentrations in the rumen of fistulated wethers; experiment: volatile fatty acid concentrations in the rumen of fistulated wethers, 454 g concentrate and 454 g chopped mixed hay (Example 6); format: in vivo, sheep; settings: for Acetic:propionic ratio / Other acids (%) / Propionic acid (%) / Butyric acid (%) / Acetic acid (%) / Total acids: day 7
Excerpt: Mature sheep (wethers) fitted with permanent rumen fistulae were used to determine the effect of L-phenylalanine, 2,2,2-trichloroethyl ester on volatile fatty acid concentrations in vivo (3 wethers per treatment). The animals were individually penned and fed 227 g. of concentrate (described in Example 3) and 680 g. of alfalfa hay once daily. The test compound was admixed with the concentrate. The sheep were medicated for 7 days. Samples for analysis were obtained before (Day 0) and after treatment (Day 7) approximately 6 hours after feeding.
An experiment similar to that described in Example 5 was performed except that the animals (3 per treatment) were fed 454 g. of concentrate (described in Example 3) and 454 g. of chopped mixed (grasses) hay.

Br.N[C@@H](Cc1ccccc1)C(=O)OCC(Cl)(Cl)Cl [L-Phenylalanine 2,2,2-trichloroethyl ester, hydrobromide]
Acetic acid ([1]; 0.02 mg/ml): 95 % of control
Acetic:propionic ([1]; 0.02 mg/ml): 83 % of control
Butyric acid ([1]; 0.02 mg/ml): 106 % of control
Propionic acid ([1]; 0.02 mg/ml): 115 % of control
Total acids ([1]; 0.02 mg/ml): 101 % of control
Acetic acid ([1]; 0.04 mg/ml): 85 % of control
Acetic:propionic ([1]; 0.04 mg/ml): 77 % of control
Butyric acid ([1]; 0.04 mg/ml): 114 % of control
Propionic acid ([1]; 0.04 mg/ml): 111 % of control
Total acids ([1]; 0.04 mg/ml): 95 % of control
Acetic acid ([1]; 0.08 mg/ml): 95 % of control
Acetic:propionic ([1]; 0.08 mg/ml): 84 % of control
Butyric acid ([1]; 0.08 mg/ml): 108 % of control
Propionic acid ([1]; 0.08 mg/ml): 112 % of control
Total acids ([1]; 0.08 mg/ml): 100 % of control
Acetic acid ([1]; 0.1 mg/ml): 92 % of control
Acetic:propionic ([1]; 0.1 mg/ml): 74 % of control
Butyric acid ([1]; 0.1 mg/ml): 116 % of control
Propionic acid ([1]; 0.1 mg/ml): 124 % of control
Total acids ([1]; 0.1 mg/ml): 102 % of control
Acetic acid ([1]; 0.2 mg/ml): 90 % of control
Acetic:propionic ([1]; 0.2 mg/ml): 75 % of control
Butyric acid ([1]; 0.2 mg/ml): 114 % of control
Propionic acid ([1]; 0.2 mg/ml): 120 % of control
Total acids ([1]; 0.2 mg/ml): 100 % of control
Acetic acid ([1]; 0.4 mg/ml): 83 % of control
Acetic:propionic ([1]; 0.4 mg/ml): 73 % of control
Butyric acid ([1]; 0.4 mg/ml): 115 % of control
Propionic acid ([1]; 0.4 mg/ml): 114 % of control
Total acids ([1]; 0.4 mg/ml): 94 % of control
effect on acetic to propionic acid ratio (in words) ([1]; at all levels (0.02-0.4 mg/ml)): decreasing the acetic to propionic acid ratio
effect on propionic acid concentrations (in words) ([1]; at all levels (0.02-0.4 mg/ml)): effective in increasing the propionic acid concentrations
Body weight gain ([2]; 0.0055% (50 g/ton) in feed, 0-2 wks., control 2.47): 2.97 kg
Body weight gain ([2]; 0.0055% (50 g/ton) in feed, 0-4 wks., control 5.80): 5.82 kg
Feed efficiency ([2]; 0.0055% (50 g/ton) in feed, 0-6 wks., control 0.190): 0.196 gain/unit of feed
Body weight gain ([2]; 0.0055% (50 g/ton) in feed, 0-6 wks., control 8.51): 9.08 kg
effect on feed efficiency (in words) ([2]; 0.0055% (50 g/ton) in the feed): improving feed efficiency
effect on gains (in words) ([2]; 0.0055% (50 g/ton) in the feed): effective in increasing gains
Weight gain ([2]; 0.0088% (80 g/ton) in feed, 0-2 wks, control 1.50): 1.49 kg
Weight gain ([2]; 0.0088% (80 g/ton) in feed, 0-4 wks, control 4.44): 4.63 kg
Feed efficiency ([2]; 0.0088% (80 g/ton) in feed, 0-6 wks, control 0.160): 0.168 gain/feed
Weight gain ([2]; 0.0088% (80 g/ton) in feed, 0-6 wks, control 7.56): 7.81 kg
Acetic:propionic ratio ([3]; 200 mg/head/day, pre-treatment 3.38, control day 7 3.54): 2.65
Other acids (%) ([3]; 200 mg/head/day, pre-treatment 5.2, control day 7 6.6): 8.2%
Propionic acid (%) ([3]; 200 mg/head/day, pre-treatment 17.5, control day 7 16.2): 19.0%
Butyric acid (%) ([3]; 200 mg/head/day, pre-treatment 18.4, control day 7 20.0): 22.5%
Acetic acid (%) ([3]; 200 mg/head/day, pre-treatment 58.8, control day 7 57.3): 50.3%
Total acids ([3]; 200 mg/head/day, pre-treatment 731, control day 7 687): 663 mg/100 ml
Acetic:propionic ratio ([3]; 500 mg/head/day, pre-treatment 3.43, control day 7 3.54): 2.18
Other acids (%) ([3]; 500 mg/head/day, pre-treatment 6.7, control day 7 6.6): 9.8%
Propionic acid (%) ([3]; 500 mg/head/day, pre-treatment 16.8, control day 7 16.2): 21.1%
Butyric acid (%) ([3]; 500 mg/head/day, pre-treatment 19.0, control day 7 20.0): 23.5%
Acetic acid (%) ([3]; 500 mg/head/day, pre-treatment 57.5, control day 7 57.3): 45.7%
Total acids ([3]; 500 mg/head/day, pre-treatment 851, control day 7 687): 734 mg/100 ml
effect on acetic:propionic ratio (in words) ([3]; fistulated wethers, 7 days): decreasing the acetic:propionic ratio
effect on proportion of propionic acid (in words) ([3]; fistulated wethers, 7 days): effective in increasing the proportion of propionic acid
